According to the supplement of paper PMC8612539:

Tested on: Histophilus somni
Experiment: minimum inhibitory concentration (MIC)
Method: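 Broth microdilution MIC (Sensititre BOPO7F bovine plate, CLSI methods) of 19 antimicrobials against field isolates of P. multocida, M. haemolytica, H. somni (deep nasopharyngeal swabs) and E. coli, Enterococcus spp. (rectal swabs) from weaned dairy heifers. Incubation 16-24 h at 35 C. MIC is the lowest concentration preventing visible growth. Values with <= or > lie at the tested range limits. Trimethoprim-sulfamethoxazole is given as the trimethoprim component of a 1:19 mixture.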

[1] = isolate (source animal id): 100
[2] = isolate (source animal id): 105
[3] = isolate (source animal id): 107
[4] = isolate (source animal id): 108
[5] = isolate (source animal id): 109
[6] = isolate (source animal id): 110
[7] = isolate (source animal id): 117
[8] = isolate (source animal id): 121
[9] = isolate (source animal id): 123
[10] = isolate (source animal id): 124
[11] = isolate (source animal id): 127
[12] = isolate (source animal id): 128
[13] = isolate (source animal id): 130
[14] = isolate (source animal id): 132
[15] = isolate (source animal id): 135
[16] = isolate (source animal id): 140
[17] = isolate (source animal id): 141
[18] = isolate (source animal id): 142
[19] = isolate (source animal id): 144
[20] = isolate (source animal id): 146
[21] = isolate (source animal id): 147
[22] = isolate (source animal id): 151
[23] = isolate (source animal id): 153
[24] = isolate (source animal id): 154
[25] = isolate (source animal id): 156
[26] = isolate (source animal id): 157
[27] = isolate (source animal id): 176
[28] = isolate (source animal id): 183
[29] = isolate (source animal id): 186
[30] = isolate (source animal id): 196
[31] = isolate (source animal id): 198
[32] = isolate (source animal id): 200
[33] = isolate (source animal id): 206
[34] = isolate (source animal id): 208
[35] = isolate (source animal id): 210
[36] = isolate (source animal id): 212
[37] = isolate (source animal id): 215
[38] = isolate (source animal id): 216
[39] = isolate (source animal id): 218
[40] = isolate (source animal id): 219
[41] = isolate (source animal id): 224
[42] = isolate (source animal id): 228
[43] = isolate (source animal id): 230
[44] = isolate (source animal id): 233
[45] = isolate (source animal id): 238
[46] = isolate (source animal id): 239
[47] = isolate (source animal id): 241
[48] = isolate (source animal id): 242
[49] = isolate (source animal id): 243
[50] = isolate (source animal id): 245
[51] = isolate (source animal id): 246
[52] = isolate (source animal id): 247
[53] = isolate (source animal id): 248
[54] = isolate (source animal id): 250
[55] = isolate (source animal id): 251
[56] = isolate (source animal id): 252
[57] = isolate (source animal id): 254
[58] = isolate (source animal id): 258
[59] = isolate (source animal id): 259
[60] = isolate (source animal id): 262
[61] = isolate (source animal id): 264
[62] = isolate (source animal id): 265
[63] = isolate (source animal id): 266
[64] = isolate (source animal id): 267
[65] = isolate (source animal id): 269
[66] = isolate (source animal id): 271
[67] = isolate (source animal id): 272
[68] = isolate (source animal id): 274
[69] = isolate (source animal id): 276
[70] = isolate (source animal id): 278
[71] = isolate (source animal id): 280
[72] = isolate (source animal id): 281
[73] = isolate (source animal id): 283
[74] = isolate (source animal id): 288
[75] = isolate (source animal id): 291
[76] = isolate (source animal id): 292
[77] = isolate (source animal id): 296
[78] = isolate (source animal id): 306
[79] = isolate (source animal id): 336
[80] = isolate (source animal id): 337
[81] = isolate (source animal id): 341

Measured: minimum inhibitory concentration

CS(=O)(=O)c1ccc([C@@H](O)[C@@H](CF)NC(=O)C(Cl)Cl)cc1 [Florfenicol]
≤ 0.25 µg/mL: isolate (source animal id): 3 | isolate (source animal id): 15 | isolate (source animal id): 18 | isolate (source animal id): 23 | isolate (source animal id): 93 | [9] | [10] | [11] | [17] | [19] | [23] | [26] | [27] | [28] | [29] | [30] | [31] | [32] | [33] | [34] | [35] | [36] | [37] | [38] | [39] | [40] | [41] | [42] | [43] | [45] | [47] | [48] | [49] | [51] | [52] | [53] | [54] | [55] | [56] | [57] | [58] | [59] | [61] | [62] | [63] | [64] | [65] | [66] | [67] | [69] | [70] | [71] | [72] | [73] | [74] | [76] | [77] | [78] | [79] | [80] | [81]
1 µg/mL: isolate (source animal id): 4 | isolate (source animal id): 7 | isolate (source animal id): 14 | isolate (source animal id): 17 | isolate (source animal id): 20 | isolate (source animal id): 45 | isolate (source animal id): 53 | [4] | [13] | [18] | [21] | [24] | [25] | [44] | [46] | [50] | [60] | [68]
0.5 µg/mL: isolate (source animal id): 83 | isolate (source animal id): 88 | isolate (source animal id): 92 | isolate (source animal id): 99 | [1] | [2] | [3] | [5] | [6] | [7] | [8] | [12] | [14] | [15] | [16] | [20] | [22] | [75]

CCCN1C[C@H](C)[C@@H](O)[C@](C)(O)[C@@H](CC)OC(=O)[C@H](C)[C@@H](O[C@H]2C[C@@](C)(OC)[C@@H](O)[C@H](C)O2)[C@H](C)[C@@H](O[C@@H]2O[C@H](C)C[C@H](N(C)C)[C@H]2O)[C@](C)(O)C[C@H]1C [Gamithromycin]
≤ 1 µg/mL: isolate (source animal id): 3 | isolate (source animal id): 4 | isolate (source animal id): 7 | isolate (source animal id): 14 | isolate (source animal id): 15 | isolate (source animal id): 17 | isolate (source animal id): 18 | isolate (source animal id): 20 | isolate (source animal id): 23 | isolate (source animal id): 45 | isolate (source animal id): 53 | isolate (source animal id): 83 | isolate (source animal id): 88 | isolate (source animal id): 92 | isolate (source animal id): 93 | isolate (source animal id): 99 | [1] | [2] | [3] | [4] | [5] | [6] | [7] | [8] | [9] | [10] | [11] | [12] | [14] | [15] | [16] | [17] | [19] | [22] | [23] | [26] | [27] | [28] | [29] | [30] | [31] | [32] | [33] | [34] | [35] | [36] | [37] | [38] | [39] | [40] | [41] | [42] | [43] | [44] | [45] | [46] | [47] | [48] | [49] | [50] | [51] | [52] | [53] | [54] | [55] | [56] | [57] | [58] | [59] | [60] | [61] | [62] | [63] | [64] | [65] | [66] | [67] | [68] | [69] | [70] | [71] | [72] | [73] | [74] | [75] | [76] | [77] | [78] | [79] | [80] | [81]
> 8 µg/mL: [18] | [21] | [24] | [25]
4 µg/mL: [13] | [20]
